Results reported in patent US20170281651A1, “CONCOMITANT ADMINISTRATION OF GLUCOCORTICOID RECEPTOR MODULATORS AND CYP3A OR STEROIDOGENESIS INHIBITORS” (Corcept Therapeutics, Inc., priority 2017, published 2017).
“And” between values parts separate entries of the source, which are not always exact repeats. Equal values may be shown once.

What was measured:
[1] = Example 3: Phase 1 study of ketoconazole 200 mg twice daily with mifepristone 600 mg once daily with food, plasma PK incl. cross-study comparison; assay type: in vivo, human
[2] = Example 1: safety (adverse events, laboratory tests, ECG); assay type: in vivo, human
Description: In cohort 1, six subjects received ketoconazole 400 mg OD for 14 days.
In cohort 2, six subjects received ketoconazole 200 mg BID for 14 days. […] All 12 subjects completed the study. Cohort 2 subjects participated in a Screening visit to assess eligibility and a check-in Day (Day −1) during which eligibility was re-confirmed. […] The evening of Day 1, subjects received 200 mg oral ketoconazole. Subjects remained in the clinic on Days 2, 3 and 4 to receive 200 mg BID oral ketoconazole, and for safety evaluation and collection of blood pharmacokinetic (PK) samples. Subjects were discharged from the clinic on Day 4 following evening administration of 200 mg oral ketoconazole, and returned to the clinic the morning and evening of Days 5 through 13 to receive 200 mg BID oral ketoconazole. Morning doses of ketoconazole on Days 0-13 were administered in the fasted state.
Subjects in both cohorts returned to the study center on Day 15 for safety monitoring, and completion of the Termination Visit procedures, followed by discharge from the study. Safety was assessed by spontaneously reported adverse events, physical examinations, and routine clinical laboratory tests. To the extent possible, any adverse events deemed study drug-related and that were ongoing at the time of discharge from the study were followed-up to resolution or until a determination is made that the unresolved event was stable.

[3] = Test: Day 17 600 mg mifepristone OD + 200 mg Ketoconazole BID, Reference: Day 12 600 mg mifepristone OD
[4] = Test: Present Study Day 17 600 mg mifepristone OD + 200 mg Ketoconazole BID, Reference: Historic Study Day 7 1200 mg mifepristone OD alone, after 34% fat meal
[5] = mifepristone 300 mg single dose with ketoconazole for 14 days

SMILES: CC#C[C@]1(O)CC[C@H]2[C@@H]3CCC4=CC(=O)CCC4=C3[C@@H](c3ccc(N(C)C)cc3)C[C@@]21C [mifepristone, 11β-(4-dimethylaminophenyl)-17β-hydroxy-17α-(1-propynyl)-estra-4,9-dien-3-one]
- exposure as percent of that following the highest labeled dose (1200 mg daily) ([1]; 600 mg mifepristone once daily with 200 mg ketoconazole twice daily): approximately 85%
- effect of ketoconazole on exposure (90% CI vs standard 80:125 interval) ([1]; Day 17 vs Day 12): increased
- difference of time 0 (pre-dose) plasma concentration ([1]; Day 17 vs Day 12, FIG. 2): ~500 ng/mL
- concentrations on Day 17 compared with Day 12 ([1]; Day 17 with 200 mg ketoconazole twice daily, Day 12 mifepristone alone): higher
- AUC0-24 Ratio % Test/Reference (geometric mean ratio) [1, 3]: 138.01%
- Cmax Ratio % Test/Reference (geometric mean ratio) [1, 3]: 127.59%
- AUC0-24 Ratio % Test/Ref (cross-study, geometric mean ratio) [1, 4]: 87.27% and 87%
- Cmax Ratio % Test/Ref (cross-study, geometric mean ratio) [1, 4]: 84.64%
- AUC0-24 Ratio % Test/Ref (cross-study, geometric mean ratio) ([1]; Test: Present Study Day 17 600 mg mifepristone OD + 200 mg Ketoconazole BID, Reference: Historic Study Day 7 1200 mg mifepristone OD alone, after 34% fat meal, listed as Mifepristone): 87.27%
- exposure less than that of 1200 mg mifepristone in the absence of ketoconazole ([1]; mifepristone 600 mg co-administered with ketoconazole): 13-15%
- safety and tolerability ([2]; 300 mg single-dose fasted with ketoconazole 400 mg OD or 200 mg BID for 14 days, healthy volunteers): safe and well tolerated
- subjects with at least one treatment emergent adverse event (TEAE) ([2]; 12 subjects, mifepristone 300 mg single dose with ketoconazole for 14 days): 25%
- changes in ECG parameters ([2]; mifepristone 300 mg single dose with ketoconazole): No clinically significant changes
- SAE or AE resulting in discontinuation [2, 5]: No subject experienced a serious adverse effect (SAE), or an adverse event (AE) that resulted in discontinuation
- TEAEs considered by the investigator to be related to the drug [2, 5]: No TEAE
